System: colorectal tissue transcripts
Experiment: SAGE of normal, adenoma and cancer colorectal tissue (transcript tag counts)
Design: species or system human
Conditions: for AD1 (SAGE tag count): SAGE library AD1; for AD2 (SAGE tag count): SAGE library AD2; for CA1 (SAGE tag count): SAGE library CA1; for CA2 (SAGE tag count): SAGE library CA2; for NC1 (SAGE tag count): SAGE library NC1; for NC2 (SAGE tag count): SAGE library NC2
From the text: In an effort to identify potential molecular markers of early colorectal tumors, we have here analyzed gene expression in benign and malignant colorectal tumors in an unbiased and comprehensive fashion. We used SAGE to analyze global gene expression in normal, benign and malignant colorectal tissue. SAGE is a gene expression profiling method that associates individual mRNA transcripts with 15-base tags derived from specific positions near their 3′ termini (3). The abundance of each tag provides a quantitative measure of the transcript level present within the mRNA population studied. SAGE is not dependent on pre-existing databases of expressed genes, and therefore provides an unbiased view of gene expression profiles. For the current study, SAGE libraries derived from two samples of normal colonic epithelium, two colorectal adenomas, and two colorectal cancers were analyzed.
SAGE. For the initial SAGE^3 of benign tumors, fresh adenomas were obtained from surgical specimens derived from FAP patients. Adenomas from FAP patients were employed because of the ready availability of small lesions and the certainty of inactivation of the APC pathway which initiates the formation of the majority of sporadic tumors. After histopathological verification of the neoplastic nature of the lesion (>70% neoplastic cells), total RNA was isolated by solubilizing the tissue in RNAgents Lysis Buffer (Promega, Madison, Wis.) followed by ultracentrifugation over a cesium chloride gradient. mRNA selection was performed from the purified total RNA using oligo(dT) cellulose (Life Technologies, Gaithersburg, Md.). […] Tags were extracted from the raw sequence data and, after excluding repeated ditags, linker sequences, and tags from the polyrnorphic Major Histocompatibility loci, the resulting tag libraries were compared and statistical analysis performed using SAGE software, version 4.0. Data from the libraries are publicly available at the Uniform Resource Locator (URL) address for the http file type found on the www host server that has a domain name of ncbi.nlm.nih.gov, and a path to the directory SAGE, and detailed SAGE protocols are available at the Uniform Resource Locator (URL) address for the http file type found on the www host server that has a domain name of sagenet.org, and file name of sage_protocol.htn.

Row | Sequence | AD1 (SAGE tag count) | AD2 (SAGE tag count) | CA1 (SAGE tag count) | CA2 (SAGE tag count) | NC1 (SAGE tag count) | NC2 (SAGE tag count)
1 | AAATCTGGCA (chemistry not fully specified) | 2 | 4 | 2 | 0 | 16 | 15
2 | AACGTGCAGG (chemistry not fully specified) | 13 | 6 | 7 | 8 | 29 | 31
3 | AAGAAAGCTC (chemistry not fully specified) | 0 | 2 | 1 | 5 | 20 | 6
4 | AAGAAGCAGG (chemistry not fully specified; the letters are possibly those of the target site) | 3 | 4 | 1 | 3 | 8 | 16
5 | AAGGTAGCAG (chemistry not fully specified) | 2 | 4 | 2 | 4 | 15 | 16
6 | AATAAAGGCT (chemistry not fully specified) | 3 | 7 | 3 | 4 | 25 | 11
7 | AATAGTTTCC (chemistry not fully specified) | 2 | 3 | 6 | 1 | 7 | 16
8 | AATCACAAAT (chemistry not fully specified) | 1 | 4 | 14 | 3 | 18 | 45
9 | AATGAGAAGG (chemistry not fully specified) | 0 | 0 | 1 | 0 | 11 | 3
10 | ACAATTGGTC (chemistry not fully specified) | 0 | 0 | 0 | 0 | 0 | 10
11 | ACACCCATCA (chemistry not fully specified) | 1 | 0 | 5 | 3 | 2 | 27
12 | ACAGGGTGAC (chemistry not fully specified) | 1 | 8 | 7 | 6 | 25 | 13
13 | ACATTGGGTG (chemistry not fully specified) | 67 | 34 | 96 | 33 | 377 | 334
14 | ACCCAACTGC (chemistry not fully specified) | 0 | 0 | 0 | 0 | 12 | 3
15 | ACCCACGTCA (chemistry not fully specified) | 3 | 5 | 3 | 1 | 22 | 10
16 | ACCCCCCCGC (chemistry not fully specified) | 7 | 13 | 16 | 6 | 44 | 38
17 | ACCTGCATCC (chemistry not fully specified) | 0 | 0 | 0 | 0 | 0 | 12

Row | Sequence | AD1 (SAGE tag count) | AD2 (SAGE tag count) | CA1 (SAGE tag count) | CA2 (SAGE tag count) | NC1 (SAGE tag count) | NC2 (SAGE tag count)
18 | ACCTGGGGAG (chemistry not fully specified) | 1 | 3 | 4 | 3 | 35 | 11
19 | ACGGTCCAGG (chemistry not fully specified) | 0 | 0 | 0 | 1 | 5 | 12
20 | ACTCTTGTTG (chemistry not fully specified) | 0 | 0 | 0 | 0 | 7 | 2
21 | ACTGTGGCGG (chemistry not fully specified) | 9 | 12 | 9 | 4 | 17 | 34
22 | AGAATAGCTT (chemistry not fully specified) | 3 | 9 | 11 | 30 | 44 | 67
23 | AGCAGGAGCA (chemistry not fully specified) | 6 | 3 | 7 | 6 | 50 | 14
24 | AGCCCGACCA (chemistry not fully specified) | 2 | 4 | 1 | 3 | 16 | 8
25 | AGGATGGTCC (chemistry not fully specified; the letters are possibly those of the target site) | 5 | 3 | 6 | 8 | 34 | 19
26 | AGGCCAAGGG (chemistry not fully specified) | 3 | 1 | 3 | 4 | 21 | 6
27 | AGGTGACTGG (chemistry not fully specified) | 0 | 0 | 0 | 0 | 10 | 14
28 | AGTGGGCTCA (chemistry not fully specified) | 0 | 1 | 0 | 0 | 3 | 8
29 | ATACTCCACT (chemistry not fully specified) | 0 | 0 | 10 | 3 | 82 | 59
30 | ATATAATCTG (chemistry not fully specified) | 1 | 4 | 5 | 5 | 18 | 14
31 | ATCGTGGCGG (chemistry not fully specified) | 19 | 25 | 20 | 10 | 193 | 92
32 | ATGACGCTCA (chemistry not fully specified) | 6 | 5 | 3 | 4 | 22 | 18
33 | ATGATGGCAC (chemistry not fully specified; the letters are possibly those of the target site) | 1 | 0 | 1 | 0 | 12 | 32

Source: patent publication US8029764B2, “Methods for detection of colorectal cancer” (The Johns Hopkins University, priority 2001, dated 2011)
